# Measured values from patent US8785594B2, “Glycoproteins and glycosylated cells and a method for the preparation of the same” (Glycom A/S, priority 2007, dated 2014).
# How the values were obtained:
# Format in all cases: cell-based
# B16.BL6 melanoma cells [1] = experiment: Scintillation, epitopes per cell (Example 15)
# Procedure: Radioactive labelled and regular alpha-Gal trisaccharide-carbamate (9) probe (labeled on the cyclic carbamate carbon) was dissolved in HBSS containing D-glucose (without Mg^2+ and Ca^2+) (Gibco Invitrogen, Taastrup, Denmark) and passed through sterile filters (0.2 μm Supor® Acrodisc® 13, Gelman Sciences, Ann Arbor, Mich.). Eight different concentrations of radioactive labelled alpha-Gal trisaccharide-carbamate (9) (1 μg, 10 μg, 100 μg, 1 mg, 5 mg, 10 mg, 15 mg and 20 mg) and […] of regular “Glycom conjugate” (10 μg, 100 μg, 1 mg, 5 mg, 10 mg, 15 mg and 20 mg) were used. Twelve flasks (300 cm^2) (TPP, Trasadingen Switzerland) were prepared, each containing 10×10^6 B16.BL6 cells, for conjugation with the radioactive labelled trisaccharide probe, and 8 flasks (150 cm^2) (TPP, Trasadingen Switzerland) were prepared, each containing 5×10^6 B16.BL6 cells, for conjugation with the non-radioactive conjugate. The Glycom conjugate was added and the total volume was adjusted with HBSS containing D-glucose (without Mg^2+ and Ca^2+) so that each large flask (300 cm^2) contained a final volume of 20 mL and each medium flask (150 cm^2) contained a final volume of 10 mL. Cells were incubated with the “Glycom conjugate” for 1.5 hours at 37° C. After conjugation, the supernatant from each flask was transferred to separate 50 mL tubes (TPP, Trasadingen Switzerland). The cells were harvested with Cell Dissociation Solution (10 mL per large flask and 5 mL per medium flask) (Sigma-aldrich, Saint Louis, Mo.) and transferred to the 50 mL tubes containing the supernatant. The cells were centrifuged for 5 minutes at 300 G at 20° C. and resuspended in 5 mL of PBS (without Mg^2+ and Ca^2+). This was repeated 3 times before cell concentration and viability was determined by microscopic evaluation of trypan blue stained cell samples.
# Cells incubated with radioactive labelled trisaccharide probe were centrifuged for 5 minutes at 1000 G at 20° C. The supernatant was discharged and the remaining pellets were dried. Subsequently, the pellets were dissolved in 450 μl Mili-Q H2O and 1.5 mL of scintillation fluid was added. Standards for the scintillation were made by adding 500 pCi, 0.5 pCi and 0 pCi to the 3 samples of control cells. The samples were stored at room temperature for 3 days, before the cell suspensions were transferred to scintillation vials and counted.
# B16.BL6 melanoma cells [2] = experiment: Cell concentration and viability after conjugation, trypan blue (Example 11)
# Procedure: Two flasks (300 cm^2) (TPP, Trasadingen Switzerland) of confluent B16.BL6 melanoma cells grown in DMEM containing 10% fetal calf serum (without P/S) at 37.5° C. in 5% CO2 were used for this experiment. Growth medium was removed from the cells and 25 mL of PBS (without Mg^2+ and Ca^2+) (Gibco Invitrogen, Taastrup, Denmark) was added to the cells and immediately removed again. Another 10 mL of PBS was added and removed, before cells were harvested with Cell Dissociation Solution C5914 (Sigma-aldrich, Saint Louis, Mo.) (3 mL per flask) and transferred to 10 mL tubes (TPP, Trasadingen Switzerland). The cells were centrifuged for 5 minutes at 300 G at 20° C. and the supernatant was discarded. Subsequently, cells were washed in PBS (without Mg^2+ and Ca^2+), centrifuged as above and resuspended in PBS (without Mg^2+ and Ca^2+). The concentration of the cell suspension was determined.
# Five hundred mg of alpha-Gal trisaccharide-carbamate (9) was dissolved in PBS (without Mg^2+ and Ca^2+) (Gibco Invitrogen, Taastrup, Denmark) and passed through a sterile filter (Sartorius Minisart®, 0.20 my) (Sartorius, Goettingen, Germany). Eight different concentrations of conjugate were prepared. Two mL of each conjugate dilution was added to a flask with 2 mL of PBS (without Mg^2+ and Ca^2+) and 600 μl of cell suspension containing 10^6 B16.BL6 cells. The final volume of the flasks was 4.6 mL. The flasks were numbered 1 to 10. Flasks 1 and 10 contained no conjugate and served as controls. The cells were incubated with the conjugate for 3 hours and 25 minutes at 37° C. and 5% CO2.
# After conjugation, cells from conjugation reaction 1 (non-conjugated cells), 2, 4, 6 and 8 were harvested with 10 mL of Cell Dissociation Solution C5914 (Sigma-Aldrich, Saint Louis, Mo.) and transferred to 10 mL tubes (TPP, Trasadingen Switzerland). Cells were centrifuged for 5 minutes at 300 G at 20° C. and resuspended in PBS (without Mg^2+ and Ca^2+). Finally, cells were centrifuged as before and resuspended in 100 μl TBS with 1% BSA. Cell concentration and viability was determined by microscopic evaluation of trypan blue stained cell samples. Cells from conjugation reaction 3, 5, 7, 9 and 10 (non-conjugated cells), were harvested the following day as described above. The cells were centrifuged once for 5 minutes at 300 G at 20° C. and resuspended in 100 μl TBS with 1% BSA. Cell concentration and viability was determined by microscopic evaluation of trypan blue stained cell samples.
# B16.BL6 melanoma cells [3] = experiment: Flow cytometry with FITC-labelled GS1B4 (Example 15); settings: all conjugation reactions, 10 μg-20 mg regular probe
# Procedure: Radioactive labelled and regular alpha-Gal trisaccharide-carbamate (9) probe (labeled on the cyclic carbamate carbon) was dissolved in HBSS containing D-glucose (without Mg^2+ and Ca^2+) (Gibco Invitrogen, Taastrup, Denmark) and passed through sterile filters (0.2 μm Supor® Acrodisc® 13, Gelman Sciences, Ann Arbor, Mich.). Eight different concentrations of radioactive labelled alpha-Gal trisaccharide-carbamate (9) (1 μg, 10 μg, 100 μg, 1 mg, 5 mg, 10 mg, 15 mg and 20 mg) and […] concentrations of regular “Glycom conjugate” (10 μg, 100 μg, 1 mg, 5 mg, 10 mg, 15 mg and 20 mg) were used. Twelve flasks (300 cm^2) (TPP, Trasadingen Switzerland) were prepared, each containing 10×10^6 B16.BL6 cells, for conjugation with the radioactive labelled trisaccharide probe, and 8 flasks (150 cm^2) (TPP, Trasadingen Switzerland) were prepared, each containing 5×10^6 B16.BL6 cells, for conjugation with the non-radioactive conjugate. […] This was repeated 3 times before cell concentration and viability was determined by microscopic evaluation of trypan blue stained cell samples.
# Cells conjugated with regular trisaccharide probe were analysed by flow cytometry. […] Mean fluorescence intensity of cells stained with GS1B4 was measured by flow cytometry.
# [4] = reaction 2, 200 mg conjugate, 10^6 cells, PBS, 3 h 25 min 37° C.
# [5] = reaction 3, 100 mg conjugate, measured 1 day after the conjugation procedure
# [6] = reaction 5, 20 mg conjugate, measured 1 day after the conjugation procedure
# [7] = reaction 7, 5 mg conjugate, measured 1 day after the conjugation procedure
# [8] = reaction 9, 1 mg conjugate, measured 1 day after the conjugation procedure
smiles,measurement,setting,value
O=[13C]1N[C@@H]2O[C@H](CO)[C@@H](O[C@@H]3O[C@H](CO)[C@H](O)[C@H](O[C@H]4O[C@H](CO)[C@H](O)[C@H](O)[C@H]4O)[C@H]3O)[C@H](O)[C@H]2O1 [radioactive labelled conjugate],Epitopes per cell,B16.BL6 melanoma cells [1]; 1 μg conjugate added,1.0 × 10^6
same,Relation of scintillation counts to dose of conjugate,B16.BL6 melanoma cells [1]; 1 μg-20 mg,positive correlation
same,Epitopes per cell,B16.BL6 melanoma cells [1]; 10 μg conjugate added,0.6 × 10^6
same,Epitopes per cell,B16.BL6 melanoma cells [1]; 100 μg conjugate added,6.8 × 10^6
same,Epitopes per cell,B16.BL6 melanoma cells [1]; 1 mg conjugate added,33.9 × 10^6
same,Epitopes per cell,B16.BL6 melanoma cells [1]; 5 mg conjugate added,175.3 × 10^6
same,Epitopes per cell,B16.BL6 melanoma cells [1]; 15 mg conjugate added,501.2 × 10^6
same,Epitopes per cell,B16.BL6 melanoma cells [1]; 20 mg conjugate added,515.2 × 10^6
"O=C1N[C@@H]2O[C@H](CO)[C@@H](O[C@@H]3O[C@H](CO)[C@H](O)[C@H](O[C@H]4O[C@H](CO)[C@H](O)[C@H](O)[C@H]4O)[C@H]3O)[C@H](O)[C@H]2O1 [Compound 9, alpha-Gal trisaccharide-carbamate]",Cell concentration,B16.BL6 melanoma cells [2]; [4],3.50 × 10^6 cells/mL
same,Cell viability,B16.BL6 melanoma cells [2]; [4],58.9%
same,Cell concentration,B16.BL6 melanoma cells [2]; [5],3.08 × 10^6 cells/mL
same,Cell viability,B16.BL6 melanoma cells [2]; [5],65.6%
same,Cell concentration,"B16.BL6 melanoma cells [2]; reaction 4, 50 mg conjugate",3.16 × 10^6 cells/mL
same,Cell viability,"B16.BL6 melanoma cells [2]; reaction 4, 50 mg conjugate",1.9%
same,Cell concentration,B16.BL6 melanoma cells [2]; [6],1.90 × 10^6 cells/mL
same,Cell viability,B16.BL6 melanoma cells [2]; [6],0.0%
same,Cell concentration,"B16.BL6 melanoma cells [2]; reaction 6, 10 mg conjugate",2.26 × 10^6 cells/mL
same,Cell viability,"B16.BL6 melanoma cells [2]; reaction 6, 10 mg conjugate",16.8%
same,Cell concentration,B16.BL6 melanoma cells [2]; [7],2.02 × 10^6 cells/mL
same,Cell viability,B16.BL6 melanoma cells [2]; [7],34.7%
same,Cell concentration,"B16.BL6 melanoma cells [2]; reaction 8, 2 mg conjugate",2.22 × 10^6 cells/mL
same,Cell viability,"B16.BL6 melanoma cells [2]; reaction 8, 2 mg conjugate",8.1%
same,Cell concentration,B16.BL6 melanoma cells [2]; [8],2.12 × 10^6 cells/mL
same,Cell viability,B16.BL6 melanoma cells [2]; [8],16.0%
same,Binding of FITC-labelled GS1B4 to cells,B16.BL6 melanoma cells [3],no binding above background levels
